What all share (test): growth of human tumour cells (NCI), 48 h
Assay [1] has as its system CCRF-CEM leukemia.
In assay [2] the test system is HCT-116 colon.
Assay [3] concerns HL-60(TB) leukemia.
The test system of assay [4] is HT29 colon.
In assay [5] the test system is K-562 leukemia.
The subject of assay [6] is KM12 colon.
The subject of assay [7] is NCI-H23 lung.
Assay [8] deals with NCI/ADR-RES ovarian.
For assay [9], the system named is OVCAR-3 ovarian.
Assay [10] relates to OVCAR-4 ovarian.
Assay [11] deals with SF-268 CNS.
The subject of assay [12] is SF-295 CNS.
Assay [13] deals with SF-539 CNS.
Assay [14] deals with SK-MEL-2 melanoma.
The subject of assay [15] is UO-31 renal.

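Values below derive from 48-hour exposures of cells grown in 96-well plates, with endpoints linearly interpolated between the two concentrations bracketing the appropriate inhibition level. At the TGI there is no net growth.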

For `CNCCCNC(=S)Cn1cc(C)c(=O)[nH]c1=O`, the TGI in assay [1] is greater than 50 µM; in assay [2], greater than 68 µM; in [3], greater than 54 µM; in [4], greater than 100 µM; in assay [5] it was greater than 100 µM; in [6], greater than 78.8 µM. For the same compound, the TGI in assay [7] is greater than 81.8 µM; in [8], greater than 100 µM; in [9], greater than 100 µM; in assay [10], greater than 100 µM; in assay [11] it was greater than 100 µM; in [12], greater than 54.3 µM. Besides, the results for the TGI in assay [13], in [14] and in [15] were greater than 60.9 µM, greater than 74.4 µM and greater than 86.7 µM, respectively.
On to `CC(C)(C)OC(=O)N1CC(CCl)c2ccc(O)cc21` (stereo not given), for which the TGI amounted to 9.61 µM in [1]; 12.1 µM in assay [2]; 5.29 µM in [3]; 11 µM in assay [4]; 14.2 µM in assay [5]; 4.6 µM in assay [6]. Further, the TGI in assay [7] amounted to 2.32 µM; in assay [8] it was 3.68 µM; in assay [9], 5.83 µM; in assay [10] it was 1.39 µM; in assay [11] it was 4.26 µM; in [12], 18.7 µM. The TGI in assay [13] worked out at 4.96 µM; in assay [14], 3.2 µM; in assay [15] it was 6.17 µM.
Take `CC(=O)c1c(SCCN2CCOCC2)n(-c2ccccc2)c(=S)n(-c2ccccc2)c1=O`: the TGI in assay [1] was 32.5 µM; in assay [2], 30.5 µM; in assay [3] it was 51.9 µM; in assay [4], 52.9 µM; in assay [5], greater than 94.2 µM; in assay [6] it was greater than 54.8 µM. In addition, the TGI was greater than 64.5 µM in [7]; greater than 100 µM in [8]; 29.3 µM in [9]; greater than 68.9 µM in assay [10]; 39.7 µM in assay [11]; greater than 100 µM in assay [12]. The TGI in assay [13] is 43.9 µM; in assay [14], 39.4 µM; in assay [15], 27.1 µM.
As to `C=C1C(=O)O[C@H]2C1C[C@@H](O)/C(C)=C/CC[C@@]1(C)O[C@H]21` (stereo not given in full), the TGI was 12.6 µM in assay [1]; 23.6 µM in assay [2]; 9.27 µM in assay [3]; greater than 57 µM in assay [4]; 28.8 µM in [5]; greater than 100 µM in [6]. Besides, the TGI in assay [7] was 31.9 µM; in assay [8], greater than 87.9 µM; in assay [9] it was 21.5 µM; in [10], greater than 43.4 µM; in assay [11], greater than 100 µM; in assay [12], greater than 100 µM. Besides, the TGI is 54.3 µM in assay [13], greater than 54.8 µM in assay [14] and greater than 49.6 µM in [15].
